From patent US20240246977A1, “DEGRADATION OF BRUTON'S TYROSINE KINASE (BTK) BY CONJUGATION OF BTK INHIBITORS WITH E3 LIGASE LIGAND AND METHOD OF USE” (BeiGene Switzerland GmbH, priority 2021, published 2024) come the findings set out here.

The subject of one experiment is HEK-293 cells. The experiment can be described thus: HEK-293 cytotoxicity detection (CellTiter-Glo). It counts as cell-based. The note with it: Homo sapiens, 72 h, 72 h incubation, CellTiter-Glo luminescence, read-out: HEK293. The essentials: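 HEK-293 cells exposed 72 h to 8 compounds doses (4-fold dilutions, top stock 5 mM at 500×) in 0.2% DMSO. Viability by CellTiter-Glo luminescence; inhibition normalised to DMSO high control and low control, IC50 from four-parameter curve fit.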
A general note: In ATP-based viability assays light output follows the ATP content of the culture.

Another experiment deals with BTK (Homo sapiens, UniProt Q06187). The experiment can be described thus: BTK cell degradation in TMD-8 cells, HTRF assay. The note with it: 6 h treatment, IC50 (DC50) of BTK degradation. Also on record: endogenous in cells; host or cells: TMD-8 cells. It counts as cell-based. The essentials:
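BTK levels read by HTRF in lysates of TMD-8 cells exposed to compounds for 6 h, eight concentrations at 6-fold steps in 0.2% DMSO. Percent degradation versus DMSO and low controls was fitted with a four-parameter equation to give DC50; Dmax is maximal degradation.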
(TR-FRET usually uses a lanthanide donor and a delayed reading to cut background.)

Sequence of BTK (Q06187 whole entry): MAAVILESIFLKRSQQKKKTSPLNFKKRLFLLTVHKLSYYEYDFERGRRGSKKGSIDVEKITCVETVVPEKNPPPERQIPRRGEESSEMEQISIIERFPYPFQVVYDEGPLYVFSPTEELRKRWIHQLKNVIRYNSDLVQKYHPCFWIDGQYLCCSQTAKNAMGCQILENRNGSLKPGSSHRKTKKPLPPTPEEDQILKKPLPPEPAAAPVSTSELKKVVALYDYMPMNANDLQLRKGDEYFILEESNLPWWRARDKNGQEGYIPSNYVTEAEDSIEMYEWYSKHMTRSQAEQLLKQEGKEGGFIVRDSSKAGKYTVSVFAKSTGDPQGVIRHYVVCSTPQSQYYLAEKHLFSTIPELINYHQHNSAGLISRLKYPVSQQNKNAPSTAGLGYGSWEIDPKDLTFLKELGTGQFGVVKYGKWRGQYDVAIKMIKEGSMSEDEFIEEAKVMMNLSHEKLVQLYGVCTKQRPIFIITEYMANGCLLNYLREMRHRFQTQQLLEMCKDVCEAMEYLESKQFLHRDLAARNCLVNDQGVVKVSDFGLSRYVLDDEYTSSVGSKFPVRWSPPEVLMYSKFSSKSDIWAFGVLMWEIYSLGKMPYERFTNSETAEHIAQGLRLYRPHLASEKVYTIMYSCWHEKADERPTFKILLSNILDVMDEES

As to `NC(=O)c1c(-c2ccc(C(=O)Nc3cc(C(F)(F)F)ccn3)c(F)c2)nn2c1Nc1ccc(N3CCN(CC4CCN(c5ccc(N6CCC(=O)NC6=O)cc5)CC4)CC3)cc1CC2` [Example B8, 7-(4-((1-(4-(2,4-dioxotetrahydropyrimidin-1(2H)-yl)phenyl)piperidin-4-yl)methyl)piperazin-1-yl)-2-(3-fluoro-4-((4-(trifluoromethyl)pyridin-2-yl)carbamoyl)phenyl)-9,10-dihydro-4H-benzo[d]pyrazolo[1,5-a][1,3]diazepine-3-carboxamide], the IC50 in the experiment on HEK-293 cells came out at 301 nM. On BTK, half-maximal degradation (DC50) was put at 1.82 nM.

For `COc1ccnc(NC(=O)c2ccc(-c3nn4c(c3C(N)=O)Nc3ccc(N5CCN(CC6CCN(c7ccc(N8CCC(=O)NC8=O)cc7)CC6)CC5)cc3CC4)cc2)c1` [Example B9, 7-(4-((1-(4-(2,4-dioxotetrahydropyrimidin-1(2H)-yl)phenyl)piperidin-4-yl)methyl)piperazin-1-yl)-2-(4-((4-methoxypyridin-2-yl)carbamoyl)phenyl)-9,10-dihydro-4H-benzo[d]pyrazolo[1,5-a][1,3]diazepine-3-carboxamide], the IC50 in the experiment with HEK-293 cells is over 10000 nM. Further, at BTK, half-maximal degradation (DC50) was put at 6.14 nM.

Turning to `Cc1ccnc(NC(=O)c2ccc(-c3nn4c(c3C(N)=O)Nc3ccc(N5CCN(CC6CCN(c7ccc(N8CCC(=O)NC8=O)cc7)CC6)CC5)cc3CC4)cc2)c1` [Example B10, 7-(4-((1-(4-(2,4-dioxotetrahydropyrimidin-1(2H)-yl)phenyl)piperidin-4-yl)methyl)piperazin-1-yl)-2-(4-((4-methylpyridin-2-yl)carbamoyl)phenyl)-9,10-dihydro-4H-benzo[d]pyrazolo[1,5-a][1,3]diazepine-3-carboxamide], the IC50 in the experiment on HEK-293 cells is over 10000 nM. For the same compound, the DC50 on BTK stood at 4.69 nM.

As for `NC(=O)c1c(-c2ccc(C(=O)Nc3cc(C4CC4)ccn3)cc2)nn2c1Nc1ccc(N3CCN(CC4CCN(c5ccc(N6CCC(=O)NC6=O)cc5)CC4)CC3)cc1CC2` [Example B11, 2-(4-((4-cyclopropylpyridin-2-yl)carbamoyl)phenyl)-7-(4-((1-(4-(2,4-dioxotetrahydropyrimidin-1(2H)-yl)phenyl)piperidin-4-yl)methyl)piperazin-1-yl)-9,10-dihydro-4H-benzo[d]pyrazolo[1,5-a][1,3]diazepine-3-carboxamide], the IC50 in the experiment with HEK-293 cells is over 10000 nM. This compound also returned a half-maximal degradation concentration (DC50) at BTK of 0.387 nM.

On to `NC(=O)c1c(-c2ccc(C(=O)Nc3cc(C(F)(F)F)ccn3)cc2)nn2c1Nc1ccc(N3CCN(CC4CCN(c5ccc(N6CCC(=O)NC6=O)cc5)CC4)CC3)cc1CC2` [Example B12, 7-(4-((1-(4-(2,4-dioxotetrahydropyrimidin-1(2H)-yl)phenyl)piperidin-4-yl)methyl)piperazin-1-yl)-2-(4-((4-(trifluoromethyl)pyridin-2-yl)carbamoyl)phenyl)-9,10-dihydro-4H-benzo[d]pyrazolo[1,5-a][1,3]diazepine-3-carboxamide], for which, in the experiment with HEK-293 cells, the IC50 was over 10000 nM. Moreover, half-maximal degradation at BTK (DC50) was put at 5.82 nM.

In the case of `NC(=O)c1c(-c2ccc(C(=O)Nc3nccc(C(F)(F)F)c3F)cc2)nn2c1Nc1ccc(N3CCN(CC4CCN(c5ccc(N6CCC(=O)NC6=O)cc5)CC4)CC3)cc1CC2` [Example B13, 7-(4-((1-(4-(2,4-dioxotetrahydropyrimidin-1(2H)-yl)phenyl)piperidin-4-yl)methyl)piperazin-1-yl)-2-(4-((3-fluoro-4-(trifluoromethyl)pyridin-2-yl)carbamoyl)phenyl)-9,10-dihydro-4H-benzo[d]pyrazolo[1,5-a][1,3]diazepine-3-carboxamide], in the experiment on HEK-293 cells, the IC50 worked out at 180 nM. This compound had a DC50 at BTK of 0.408 nM.

Take `NC(=O)c1c(-c2cc(F)c(C(=O)Nc3cc(C(F)(F)F)ccn3)c(F)c2)nn2c1Nc1ccc(N3CCN(CC4CCN(c5ccc(N6CCC(=O)NC6=O)cc5)CC4)CC3)cc1CC2` [Example B14, 2-(3,5-difluoro-4-((4-(trifluoromethyl)pyridin-2-yl)carbamoyl)phenyl)-7-(4-((1-(4-(2,4-dioxotetrahydropyrimidin-1(2H)-yl)phenyl)piperidin-4-yl)methyl)piperazin-1-yl)-9,10-dihydro-4H-benzo[d]pyrazolo[1,5-a][1,3]diazepine-3-carboxamide]: the IC50 with HEK-293 cells was found to be 75.4 nM. This compound had a DC50 at BTK of 1.61 nM.

`Cc1c(C(=O)Nc2cc(C(F)(F)F)ccn2)ccc(-c2nn3c(c2C(N)=O)Nc2ccc(N4CCN(CC5CCN(c6ccc(N7CCC(=O)NC7=O)cc6)CC5)CC4)cc2CC3)c1F` [Example B15, 7-(4-((1-(4-(2,4-dioxotetrahydropyrimidin-1(2H)-yl)phenyl)piperidin-4-yl)methyl)piperazin-1-yl)-2-(2-fluoro-3-methyl-4-((4-(trifluoromethyl)pyridin-2-yl)carbamoyl)phenyl)-9,10-dihydro-4H-benzo[d]pyrazolo[1,5-a][1,3]diazepine-3-carboxamide]: in the experiment with HEK-293 cells, the IC50 worked out at 185 nM. This compound showed a DC50 on BTK of 1.13 nM.

As to `NC(=O)c1c(-c2ccc(C(=O)Nc3cccc(C(F)(F)F)n3)cc2)nn2c1Nc1ccc(N3CCN(CC4CCN(c5ccc(N6CCC(=O)NC6=O)cc5)CC4)CC3)cc1CC2` [Example B16, 7-(4-((1-(4-(2,4-dioxotetrahydropyrimidin-1(2H)-yl)phenyl)piperidin-4-yl)methyl)piperazin-1-yl)-2-(4-((6-(trifluoromethyl)pyridin-2-yl)carbamoyl)phenyl)-9,10-dihydro-4H-benzo[d]pyrazolo[1,5-a][1,3]diazepine-3-carboxamide], in the experiment on HEK-293 cells, the IC50 turned out to be 232 nM. For the same compound, the DC50 on BTK is 1.32 nM.

For the compound `NC(=O)c1c(-c2ccc(C(=O)Nc3ccc(C(F)(F)F)cn3)cc2)nn2c1Nc1ccc(N3CCN(CC4CCN(c5ccc(N6CCC(=O)NC6=O)cc5)CC4)CC3)cc1CC2` [Example B17, 7-(4-((1-(4-(2,4-dioxotetrahydropyrimidin-1(2H)-yl)phenyl)piperidin-4-yl)methyl)piperazin-1-yl)-2-(4-((5-(trifluoromethyl)pyridin-2-yl)carbamoyl)phenyl)-9,10-dihydro-4H-benzo[d]pyrazolo[1,5-a][1,3]diazepine-3-carboxamide], the IC50 with HEK-293 cells is over 10000 nM. Further, the DC50 at BTK is 2.19 nM.

In the case of `NC(=O)c1c(-c2ccc(C(=O)Nc3cc(C(F)F)ccn3)cc2)nn2c1Nc1ccc(N3CCN(CC4CCN(c5ccc(N6CCC(=O)NC6=O)cc5)CC4)CC3)cc1CC2` [Example B18, 2-(4-((4-(difluoromethyl)pyridin-2-yl)carbamoyl)phenyl)-7-(4-((1-(4-(2,4-dioxotetrahydropyrimidin-1(2H)-yl)phenyl)piperidin-4-yl)methyl)piperazin-1-yl)-9,10-dihydro-4H-benzo[d]pyrazolo[1,5-a][1,3]diazepine-3-carboxamide], the IC50 with HEK-293 cells is over 10000 nM. The same compound displayed a DC50 at BTK of 0.378 nM.

In the case of `Cc1cccc(NC(=O)c2ccc(-c3nn4c(c3C(N)=O)Nc3ccc(N5CCN(CC6CCN(c7ccc(N8CCC(=O)NC8=O)cc7)CC6)CC5)cc3CC4)cc2)n1` [Example B19, 7-(4-((1-(4-(2,4-dioxotetrahydropyrimidin-1(2H)-yl)phenyl)piperidin-4-yl)methyl)piperazin-1-yl)-2-(4-((6-methylpyridin-2-yl)carbamoyl)phenyl)-9,10-dihydro-4H-benzo[d]pyrazolo[1,5-a][1,3]diazepine-3-carboxamide], the IC50 in the experiment with HEK-293 cells was over 10000 nM. Further, it took 0.284 nM to reach half-maximal degradation at BTK (DC50).

Turning to `Cc1cccc(NC(=O)c2ccc(-c3nn4c(c3C(N)=O)Nc3ccc(N5CCN(CC6CCN(c7ccc(N8CCC(=O)NC8=O)cc7)CC6)CC5)cc3CC4)c(Cl)c2)n1` [Example B20, 2-(2-chloro-4-((6-methylpyridin-2-yl)carbamoyl)phenyl)-7-(4-((1-(4-(2,4-dioxotetrahydropyrimidin-1(2H)-yl)phenyl)piperidin-4-yl)methyl)piperazin-1-yl)-9,10-dihydro-4H-benzo[d]pyrazolo[1,5-a][1,3]diazepine-3-carboxamide], the IC50 in the experiment with HEK-293 cells is over 10000 nM. Moreover, at BTK, the 50% degradation concentration (DC50) turned out to be 0.469 nM.

Turning to `Cc1cccc(NC(=O)c2ccc(-c3nn4c(c3C(N)=O)Nc3ccc(N5CCN(CC6CCN(c7ccc(N8CCC(=O)NC8=O)cc7)CC6)CC5)cc3CC4)cc2C)n1` [Example B21, 7-(4-((1-(4-(2,4-dioxotetrahydropyrimidin-1(2H)-yl)phenyl)piperidin-4-yl)methyl)piperazin-1-yl)-2-(3-methyl-4-((6-methylpyridin-2-yl)carbamoyl)phenyl)-9,10-dihydro-4H-benzo[d]pyrazolo[1,5-a][1,3]diazepine-3-carboxamide], in the experiment with HEK-293 cells, the IC50 is over 10000 nM. Besides, the DC50 at BTK amounted to 0.602 nM.

In the case of `COc1cc(C(=O)Nc2cccc(C)n2)ccc1-c1nn2c(c1C(N)=O)Nc1ccc(N3CCN(CC4CCN(c5ccc(N6CCC(=O)NC6=O)cc5)CC4)CC3)cc1CC2` [Example B22, 7-(4-((1-(4-(2,4-dioxotetrahydropyrimidin-1(2H)-yl)phenyl)piperidin-4-yl)methyl)piperazin-1-yl)-2-(2-methoxy-4-((6-methylpyridin-2-yl)carbamoyl)phenyl)-9,10-dihydro-4H-benzo[d]pyrazolo[1,5-a][1,3]diazepine-3-carboxamide], in the experiment on HEK-293 cells, the IC50 was over 10000 nM. Also, half-maximal degradation at BTK (DC50) was put at 0.338 nM.

As for `Cc1cc(C)nc(NC(=O)c2ccc(-c3nn4c(c3C(N)=O)Nc3ccc(N5CCN(CC6CCN(c7ccc(N8CCC(=O)NC8=O)cc7)CC6)CC5)cc3CC4)cc2C)c1` [Example B23, 2-(4-((4,6-dimethylpyridin-2-yl)carbamoyl)-3-methylphenyl)-7-(4-((1-(4-(2,4-dioxotetrahydropyrimidin-1(2H1)-yl)phenyl)piperidin-4-yl)methyl)piperazin-1-yl)-9,10-dihydro-4H-benzo[d]pyrazolo[1,5a][1,3]diazepine-3-carboxamide], the IC50 in the experiment on HEK-293 cells is over 10000 nM. This compound also displayed a DC50 on BTK of 0.594 nM.

Usually DC50 stands for the midpoint of the concentration-degradation curve. A high value points to a less potent degrader.
